Reference: patent publication US20240083851A1 (priority 2020, published 2024)

Key:
RUNX2 [1] = assay: Effect of ERK inhibitor on increase in RUNX2 expression by LAD in MSCs; type: cell-based, human
Procedure: ERK may induce the phosphorylation of RUNX2 to increase transcriptional activity and may be involved in stability to increase an amount of RUNX2 protein (Greenblatt et al., MB, Annu Rev Cell Dev Biol. 2013). Therefore, an increase in ERK phosphorylation by LAD may induce RUNX2 expression so that LAD can be involved in the differentiation of MSCs into osteoblasts. To verify this, an expression level of RUNX2 was determined after MSCs were treated with a combination of LAD (0.1 μM) and the ERK inhibitor PD98059 (50 μM).

[2] = system: ovariectomized (OVX) mice; assay: Ovariectomized (OVX) mice model of osteoporosis, femur bone parameters; type: in vivo; settings: daily for 10 weeks; for BMD: femur
Description: (§1) An ability of LAD to treat osteoporosis was confirmed in an animal model of ovariectomized (OVX) mice commonly used as an animal model of osteoporosis.
(§2) As the positive control, parathyroid hormone (PTH)-based Forteo (Eli Lilly) used as an osteoporosis therapeutic agent through an osteogenesis-promoting mechanism, and alendronate-based Fosamax (Merck) serving as a bone resorption inhibitor, were subcutaneously administered. As the negative control, water (H2O) was orally administered, and LAD was orally administered at a concentration of 5 or 30 mg/kg (FIG. 8A). After the drug was administered daily for 10 weeks, the bone mineral density (BMD) was measured.

BMP-2 = assay: Change in expression of BMP2 in MSCs (antibody staining, fluorescence microscope); type: cell-based, human; settings: 0.001 μM (1 nM), once a day for 7 and 14 days, increased with concentration up to 0.1 μM
Description: (§3) Runt-related transcription factor 2 (RUNX2; core-binding factor alpha, Cbfa1) is the most important transcriptional regulatory factor for osteogenesis, and is known to be involved in osteoblast differentiation, matrix generation, and mineralization during the osteogenesis (Bruderer M, et al., Eur Cell Mater. 2014). Also, RUNX2 itself may be regulated by a bone morphogenetic protein (BMP), which is a type of cytokine (Sun J, et al., Mol Med Rep. 2015). Accordingly, it was confirmed whether LAD promotes the expression of an osteogenesis-related specific factor to induce osteogenesis.
(§4) MSCs were seeded in a 24-well plate at a concentration of 3×10^4 cells/well, and cultured for 24 hours. From the next day, the MSCs were treated with different concentrations (0.001 μM, 0.01 μM, and 0.1 μM) of LAD once a day for 7 days and 14 days. After the experiment was completed, the MSCs were stained with RUNX2 and BMP-2 antibodies, and observed using a fluorescence microscope.

RUNX2 [3] = assay: RUNX2 expression in femurs of ovariectomized mice; type: in vivo; settings: LAD oral, daily for 10 weeks
Description: as §1, §2
In Table 1, BMD represents bone mineral density, TV represents total volume, BV represents bone volume, Tb.Th represents trabecular thickness, and Tb.N represents trabecular number.

[4] = system: phosphorylated ERK (pERK); assay: ERK phosphorylation in MSCs after LAD treatment; type: cell-based, human
Procedure: Accordingly, the level of phosphorylated ERK according to time elapsed after MSCs were treated with LAD was determined.
Also, to determine whether LAD induces the ERK phosphorylation for a long period, MSCs were treated with various concentrations (0.001, 0.01, and 0.1 μM) of LAD, and the level of phosphorylated ERK (pERK) was checked after 7 days and 14 days. […] In particular, it was confirmed that the level of phosphorylated ERK (pERK) increased to a level similar to that of the positive control (OIM) even at a low concentration.

osteocalcin = assay: Change in expression of osteocalcin in MSCs (antibody staining, fluorescence microscope); type: cell-based, human; settings: 0.001 μM, within 7 days, level similar to OIM-treated group
Procedure: Osteocalcin is expressed only in osteoblasts (Lee et al., Cell 2007), and is used as a useful biomarker for osteogenesis (Bharadwaj et al., Osteoporosis International., 2009).
An experiment was performed in the same manner as described in Experimental Example 1-2, and MSCs were then stained with an osteocalcin antibody, and observed using a fluorescence microscope.

RUNX2 [5] = assay: Change in expression of RUNX2 in MSCs (antibody staining, fluorescence microscope); type: cell-based, human; settings: 0.001 μM (1 nM), once a day for 7 and 14 days, increased with concentration up to 0.1 μM
Description: as §3, §4

[6] = system: phosphorylated forms of 43 kinases (ERK, Akt, WNK1); assay: Phosphokinase antibody array in MSCs; type: cell-based, human; settings: LAD 1 μM, 24 hours, compared to control DMSO
Procedure: To study a mechanism by which LAD differentiates MSCs into osteoblasts, related signaling was investigated.
MSCs cultured in an experimental DMEM culture medium were treated with LAD (1 μM) or the control compound (DMSO), and cultured for 24 hours. The cells were recovered, and an experiment was then performed according to a method specified in a phosphokinase antibody array kit (R&D Systems) containing antibodies that specifically recognize phosphorylated forms of 43 kinases. Then, samples were analyzed using an ImageJ (NIH, USA) program.

MSCs = assay: Osteoblast differentiation of MSCs with LAD plus kinase inhibitor (Alizarin Red); type: cell-based, human; settings: LAD 1 μM combined with inhibitor (1 μM) of ERK, P38 or Akt, 3 weeks, compared to LAD alone
Procedure: To further study the mechanism by which LAD differentiates MSCs into osteoblasts, an experiment was performed using a kinase inhibitor.
After MSCs were cultured, the MSCs were simultaneously treated with a kinase inhibitor (1 μM) and LAD (1 μM). Next day, the medium was exchanged, and the MSCs were simultaneously treated again with the kinase inhibitor and LAD. This procedure was repeated for 3 weeks, and the MSCs were than stained with Alizarin Red.

[7] = OVX mice, positive control subcutaneous

For `COc1cccc(-c2cc(=O)c3ccccc3o2)c1N` [PD98059, reference compound], the “expression of RUNX2” value (RUNX2 [1]; combination of LAD 0.1 μM and PD98059 50 μM, 12 hours (same at 24 hours)) was “significantly decreased”.
With `CCN1C[C@]2(OC(=O)c3ccccc3NC(C)=O)CC[C@H](OC)C34C1C(C[C@@H]32)C(=O)C[C@H](OC)[C@H]1C[C@@H]4C(=O)[C@H]1OC` [LAD, (3S,6S,7S,9S,11S,16S)-1-ethyl-6,9,11-trimethoxy-8,13-dioxododecahydro-2H-3,6a,14-(epiethane[1,1,2]triyl)-7,10-methanocyclodeca[b]azocin-3(4H)-yl 2-acetaminobenzoate] the “expression of RUNX2” value (RUNX2 [1]; LAD 0.1 μM alone, within 12 hours (same at 24 hours)) was “significantly increased”, the BV ([2]; OVX mice, LAD 5 mg/kg oral) was 1.009 mm^3 and the BV/TV ([2]; OVX mice, LAD 5 mg/kg oral) was 6.422%. For the same molecule, the TV ([2]; OVX mice, LAD 5 mg/kg oral) was 15.6 mm^3, the “Tb. N” value ([2]; OVX mice, LAD 5 mg/kg oral) was 0.8775 mm and the “Tb. Th” value ([2]; OVX mice, LAD 5 mg/kg oral) was 0.205 1/mm. For the same molecule, the BMD ([2]; OVX mice, LAD 5 mg/kg oral) was 0.2066 g/mL, the BV ([2]; OVX mice, LAD 30 mg/kg oral) was 1.17 mm^3 and the BV/TV ([2]; OVX mice, LAD 30 mg/kg oral) was 7.036%. For the same molecule, the TV ([2]; OVX mice, LAD 30 mg/kg oral) was 16.58 mm^3, the “Tb. N” value ([2]; OVX mice, LAD 30 mg/kg oral) was 0.9485 mm and the “Tb. Th” value ([2]; OVX mice, LAD 30 mg/kg oral) was 0.0739 1/mm. For the same molecule, the BMD ([2]; OVX mice, LAD 30 mg/kg oral) was 0.2168 g/mL, the “bone mineral density compared to the negative control” value ([2]; OVX mice, LAD 5 or 30 mg/kg oral, versus water) was “significantly increased” and the “effect on bone mineral density compared with Forteo” value ([2]; OVX mice, LAD oral versus Forteo subcutaneous) was “significantly superior to that of Forteo”. For the same molecule, the “osteogenesis in the femurs (tissue staining)” value ([2]; ovariectomized mice, LAD oral) was “induced osteogenesis”, the “expression of BMP-2” value (BMP-2) was “strongly induced” and the “expression of RUNX2 in femurs” value (RUNX2 [3]) was “significantly increased”. For the same molecule, the “level of phosphorylated ERK (pERK)” value ([4]; MSCs, 0.001, 0.01 and 0.1 μM LAD, after 7 days and 14 days, similar to OIM even at low concentration) was “significantly increased”, the “level of phosphorylated ERK (pERK)” value ([4]; MSCs, 24 hours after LAD treatment) was “increased” and the “level of phosphorylated ERK (pERK)” value ([4]; MSCs, within 30 minutes after LAD treatment) was “significantly increased”. For the same molecule, the expression of osteocalcin (osteocalcin) was “strongly induced”, the “expression of RUNX2” value (RUNX2 [5]) was “strongly induced” and the “phosphorylation of signaling molecules such as ERK, Akt, WNK1” value [6] was “strongly increased”. The “osteoblast differentiation ability of LAD (Alizarin Red)” value (MSCs) was “inhibited”.
With `CC[C@H](C)[C@H](NC(=O)[C@H](CCC(=O)O)NC(=O)[C@H](CO)NC(=O)[C@@H](NC(=O)[C@@H](N)CO)C(C)C)C(=O)N[C@@H](CCC(N)=O)C(=O)N[C@@H](CC(C)C)C(=O)N[C@@H](CCSC)C(=O)N[C@@H](Cc1cnc[nH]1)C(=O)N[C@@H](CC(N)=O)C(=O)N[C@@H](CC(C)C)C(=O)NCC(=O)N[C@@H](CCCCN)C(=O)N[C@@H](Cc1cnc[nH]1)C(=O)N[C@@H](CC(C)C)C(=O)N[C@@H](CC(N)=O)C(=O)N[C@@H](CO)C(=O)N[C@@H](CCSC)C(=O)N[C@@H](CCC(=O)O)C(=O)N[C@@H](CCCN=C(N)N)C(=O)N[C@H](C(=O)N[C@@H](CCC(=O)O)C(=O)N[C@@H](Cc1c[nH]c2ccccc12)C(=O)N[C@@H](CC(C)C)C(=O)N[C@@H](CCCN=C(N)N)C(=O)N[C@@H](CCCCN)C(=O)N[C@@H](CCCCN)C(=O)N[C@@H](CC(C)C)C(=O)N[C@@H](CCC(N)=O)C(=O)N[C@@H](CC(=O)O)C(=O)N[C@H](C(=O)N[C@@H](Cc1cnc[nH]1)C(=O)N[C@@H](CC(N)=O)C(=O)N[C@@H](Cc1ccccc1)C(=O)O)C(C)C)C(C)C` [Forteo, reference compound] the BV [2, 7] was 0.8791 mm^3, the BV/TV [2, 7] was 5.735% and the TV [2, 7] was 15.43 mm^3. For the same molecule, the “Tb. N” value [2, 7] was 0.8018 mm, the “Tb. Th” value [2, 7] was 0.07112 1/mm and the BMD [2, 7] was 0.2013 g/mL.
Molecule `NCCCC(O)(P(=O)(O)O)P(=O)(O)O` [Fosamax, reference compound] has a BV [2, 7] of 1.017 mm^3, a BV/TV [2, 7] of 6.521% and a TV [2, 7] of 15.51 mm^3. For the same molecule, the “Tb. N” value [2, 7] was 0.9286 mm, the “Tb. Th” value [2, 7] was 0.06994 1/mm and the BMD [2, 7] was 0.2145 g/mL.
